Laboratory results as given in patent US8759481B2, “Peptide vaccines for cancers expressing tumor-associated antigens” (Oncotherapy Science, Inc., priority 2007, dated 2014).

What was measured:
Type in all cases: cell-based, human
peptide-pulsed T2 cells [1] = assay: IFN-gamma ELISPOT assay (positive wells); conditions: HLA-A*0201, 9-mer peptides derived from INHBB; positive/total wells
Summary of the method: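 CD8+ T cells from HLA-A*2402 and/or HLA-A*0201 donors were stimulated 1:20 with autologous monocyte-derived DCs pulsed with 20 µg/ml peptide plus β2-microglobulin, in IL-7, with IL-2 added, restimulated on days 7 and 14. On day 21, IFN-γ ELISPOT against peptide-pulsed T2 or A24-LCL cells (1×10^4/well) scored wells as positive, with CTL lines confirmed by ELISA.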

[2] = test system: CD8+ T cells (HLA-A*2402 donors); assay: In vitro CTL induction with peptide-pulsed DCs (positive donor number); conditions: HLA-A*2402, 9-mer peptides derived from INHBB; positive/total donors
Summary of the method: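 Autologous CD8+ T cells from HLA-A*2402 and/or A*0201 donors stimulated with MMC-inactivated monocyte-derived DCs pulsed with 20 μg/ml peptide, at 1:20 DC:T with IL-7, then IL-2 (20 IU/ml); restimulated days 7 and 14. CTL tested day 21 on peptide-pulsed A24-LCL or T2 cells; reported as positive/total donors.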

peptide-pulsed T2 cells [3] = assay: CTL line establishment, IFN-gamma ELISA; conditions: HLA-A*0201, 9-mer peptides derived from INHBB; CTL lines/positive wells
Summary of the method: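 CTLs expanded with MMC-inactivated B-lymphoblastoid lines, 40 ng/ml anti-CD3 and IL-2 (120 IU/ml day 1, then 30 IU/ml on days 5, 8, 11). Peptide-pulsed T2 or A24-LCL stimulators (1×10^4/well) incubated with cultured wells or limiting-dilution clones as responders; IFN-gamma detected by ELISPOT (positive wells) and ELISA (established CTL lines).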

[4] = test system: peptide-pulsed A24-LCL cells; assay: IFN-gamma ELISPOT assay (positive wells); conditions: HLA-A*2402, 9-mer peptides derived from INHBB; positive/total wells
Summary of the method: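 PBMC-derived DCs from HLA-A*2402 and/or A*0201 donors, pulsed with 20 micro g/ml peptide plus 3 micro g/ml beta 2-microglobulin, stimulated autologous CD8+ T cells three times (days 0, 7, 14). On day 21, responders were tested against peptide-pulsed A24-LCL or T2 cells by IFN-gamma ELISPOT. Values are reported as positive wells/wells tested; CTL lines confirmed by ELISA.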

## VQCDSCQEL
peptide-pulsed T2 cells [1]
  positive well number: 1/8
[2]
  positive donor number: 0/1
peptide-pulsed T2 cells [3]
  positive CTL line: 0/1
[4]
  positive well number: 0/8
